Measurements from the NIST ThermoML archive (doi:10.1021/je3008974).
Numbers after ± are expanded uncertainties.

Conditions: Liquid
[1] = 298.15 K, 2000 kPa, Pycnometric method

Compound: F/C=C/C(F)(F)F [trans-1,3,3,3-tetrafluoropropene]
- mass density (285.5 K, 1018.5 kPa, isochoric method): 1205.5 ± 2.4 kg/m3
- mass density (286.92 K, 2021.5 kPa, isochoric method): 1205.4 ± 2.4 kg/m3
- mass density (288.32 K, 3010.5 kPa, isochoric method): 1205.3 ± 2.4 kg/m3
- mass density (289.41 K, 3779.9 kPa, isochoric method): 1205.2 ± 2.4 kg/m3
- mass density (291.42 K, 20124 kPa, isochoric method): 1254.7 ± 2.4 kg/m3
- mass density (291.45 K, 5221.8 kPa, isochoric method): 1205 ± 2.4 kg/m3
- mass density (298.03 K, 1062.5 kPa, isochoric method): 1165.6 ± 2.4 kg/m3
- mass density (298.14 K, 9928.4 kPa, isochoric method): 1204.5 ± 2.4 kg/m3
- mass density [1]: 1170.52 ± 1.1 kg/m3
- mass density (299.62 K, 2045.7 kPa, isochoric method): 1165.5 ± 2.4 kg/m3
- mass density (301.21 K, 3025.5 kPa, isochoric method): 1165.3 ± 2.4 kg/m3
- mass density (302.81 K, 4026.8 kPa, isochoric method): 1165.2 ± 2.4 kg/m3
- mass density (304.38 K, 4991.3 kPa, isochoric method): 1165.1 ± 2.4 kg/m3
- mass density (305.08 K, 14792 kPa, isochoric method): 1203.9 ± 2.4 kg/m3
- mass density (312.4 K, 1349.3 kPa, isochoric method): 1117.7 ± 2.4 kg/m3
- mass density (312.58 K, 10069 kPa, isochoric method): 1164.5 ± 2.4 kg/m3
- mass density (312.58 K, 19938 kPa, isochoric method): 1203.3 ± 2.4 kg/m3
- mass density (313.7 K, 2032.5 kPa, isochoric method): 1117.6 ± 2.4 kg/m3
- mass density (315.61 K, 3038.9 kPa, isochoric method): 1117.5 ± 2.4 kg/m3
- mass density (317.51 K, 4033.2 kPa, isochoric method): 1117.4 ± 2.4 kg/m3
- mass density (319.6 K, 5142.9 kPa, isochoric method): 1117.2 ± 2.4 kg/m3
- mass density (319.8 K, 24935 kPa, isochoric method): 1202.7 ± 2.4 kg/m3
- mass density (320.41 K, 14882 kPa, isochoric method): 1163.9 ± 2.4 kg/m3
- mass density (327 K, 29927 kPa, isochoric method): 1202.2 ± 2.4 kg/m3
- mass density (328.71 K, 2042.5 kPa, isochoric method): 1060.1 ± 2.4 kg/m3
- mass density (328.71 K, 9986.8 kPa, isochoric method): 1116.5 ± 2.4 kg/m3
- mass density (328.72 K, 19949 kPa, isochoric method): 1163.2 ± 2.4 kg/m3
- mass density (330.83 K, 2963.3 kPa, isochoric method): 1060 ± 2.4 kg/m3
- mass density (333.13 K, 3964.2 kPa, isochoric method): 1059.8 ± 2.4 kg/m3
- mass density (334.34 K, 34952 kPa, isochoric method): 1201.6 ± 2.4 kg/m3
- mass density (335.43 K, 4968.4 kPa, isochoric method): 1059.7 ± 2.4 kg/m3
- mass density (336.83 K, 24924 kPa, isochoric method): 1162.6 ± 2.4 kg/m3
- mass density (337.81 K, 14797 kPa, isochoric method): 1115.9 ± 2.4 kg/m3
- mass density (341.91 K, 40043 kPa, isochoric method): 1201 ± 2.4 kg/m3
- mass density (345.09 K, 29935 kPa, isochoric method): 1162 ± 2.4 kg/m3
- mass density (346.84 K, 9943.4 kPa, isochoric method): 1058.9 ± 2.4 kg/m3
- mass density (347.53 K, 19908 kPa, isochoric method): 1115.2 ± 2.4 kg/m3
- mass density (353.15 K, 12717 kPa, isochoric method): 1058.5 ± 2.4 kg/m3
- mass density (353.15 K, 22854 kPa, isochoric method): 1114.8 ± 2.4 kg/m3
- mass density (353.15 K, 34806 kPa, isochoric method): 1161.4 ± 2.4 kg/m3

Compound: FC(F)(F)I [trifluoroiodomethane]
- mass density (207.79 K, 10925 kPa, isochoric method): 2455.5 ± 2.9 kg/m3
- mass density (210.4 K, 14322 kPa, isochoric method): 2455 ± 2.9 kg/m3
- mass density (214.87 K, 20130 kPa, isochoric method): 2454.2 ± 2.9 kg/m3
- mass density (214.92 K, 1055.7 kPa, isochoric method): 2401.1 ± 2.9 kg/m3
- mass density (215.96 K, 2305 kPa, isochoric method): 2400.9 ± 2.9 kg/m3
- mass density (216.71 K, 3175.5 kPa, isochoric method): 2400.7 ± 2.9 kg/m3
- mass density (217.73 K, 4381.5 kPa, isochoric method): 2400.5 ± 2.9 kg/m3
- mass density (218.37 K, 5116.4 kPa, isochoric method): 2400.4 ± 2.9 kg/m3
- mass density (218.48 K, 25008 kPa, isochoric method): 2453.5 ± 2.9 kg/m3
- mass density (222.4 K, 29924 kPa, isochoric method): 2452.8 ± 2.9 kg/m3
- mass density (222.62 K, 10052 kPa, isochoric method): 2399.6 ± 2.9 kg/m3
- mass density (226.21 K, 34684 kPa, isochoric method): 2452.1 ± 2.9 kg/m3
- mass density (226.99 K, 15121 kPa, isochoric method): 2398.8 ± 2.9 kg/m3
- mass density (229.95 K, 39202 kPa, isochoric method): 2451.5 ± 2.9 kg/m3
- mass density (231.25 K, 20002 kPa, isochoric method): 2398.1 ± 2.9 kg/m3
- mass density (231.74 K, 1109.5 kPa, isochoric method): 2334.8 ± 2.8 kg/m3
- mass density (233.57 K, 2990.1 kPa, isochoric method): 2334.5 ± 2.8 kg/m3
- mass density (234.66 K, 4114 kPa, isochoric method): 2334.3 ± 2.8 kg/m3
- mass density (235.46 K, 4930.4 kPa, isochoric method): 2334.1 ± 2.8 kg/m3
- mass density (235.5 K, 24985 kPa, isochoric method): 2397.3 ± 2.9 kg/m3
- mass density (239.91 K, 29944 kPa, isochoric method): 2396.6 ± 2.9 kg/m3
- mass density (240.52 K, 10116 kPa, isochoric method): 2333.3 ± 2.8 kg/m3
- mass density (244.17 K, 34707 kPa, isochoric method): 2395.8 ± 2.9 kg/m3
- mass density (245.45 K, 15114 kPa, isochoric method): 2332.4 ± 2.8 kg/m3
- mass density (248.78 K, 39783 kPa, isochoric method): 2395.1 ± 2.9 kg/m3
- mass density (250.46 K, 20143 kPa, isochoric method): 2331.6 ± 2.8 kg/m3
- mass density (251.97 K, 1975.5 kPa, isochoric method): 2256.4 ± 2.8 kg/m3
- mass density (253.21 K, 3063.1 kPa, isochoric method): 2256.2 ± 2.8 kg/m3
- mass density (254.16 K, 3884.4 kPa, isochoric method): 2256 ± 2.8 kg/m3
- mass density (255.27 K, 4873.4 kPa, isochoric method): 2255.8 ± 2.8 kg/m3
- mass density (255.32 K, 25028 kPa, isochoric method): 2330.8 ± 2.8 kg/m3
- mass density (260.19 K, 29834 kPa, isochoric method): 2330 ± 2.8 kg/m3
- mass density (261.5 K, 10373 kPa, isochoric method): 2254.8 ± 2.8 kg/m3
- mass density (265.13 K, 34684 kPa, isochoric method): 2329.2 ± 2.8 kg/m3
- mass density (266.41 K, 776 kPa, isochoric method): 2188.5 ± 2.7 kg/m3
- mass density (266.75 K, 1052.9 kPa, isochoric method): 2188.4 ± 2.7 kg/m3
- mass density (267.06 K, 15109 kPa, isochoric method): 2253.2 ± 2.8 kg/m3
- mass density (267.97 K, 1992.8 kPa, isochoric method): 2188.2 ± 2.7 kg/m3
- mass density (269.24 K, 2976.2 kPa, isochoric method): 2188 ± 2.7 kg/m3
- mass density (270.53 K, 3984.6 kPa, isochoric method): 2187.8 ± 2.7 kg/m3
- mass density (270.93 K, 40330 kPa, isochoric method): 2328.3 ± 2.8 kg/m3
- mass density (272.12 K, 5216.5 kPa, isochoric method): 2187.6 ± 2.7 kg/m3
- mass density (272.85 K, 20116 kPa, isochoric method): 2252.3 ± 2.8 kg/m3
- mass density (278.48 K, 25009 kPa, isochoric method): 2252.2 ± 2.8 kg/m3
- mass density (278.49 K, 10098 kPa, isochoric method): 2186.6 ± 2.7 kg/m3
- mass density (278.5 K, 24979 kPa, isochoric method): 2251.5 ± 2.8 kg/m3
- mass density (284.17 K, 29780 kPa, isochoric method): 2250.6 ± 2.8 kg/m3
- mass density (284.36 K, 940.5 kPa, isochoric method): 2105.8 ± 2.7 kg/m3
- mass density (285.08 K, 15134 kPa, isochoric method): 2185.7 ± 2.7 kg/m3
- mass density (285.92 K, 1976.8 kPa, isochoric method): 2105.6 ± 2.7 kg/m3
- mass density (287.34 K, 2905.5 kPa, isochoric method): 2105.4 ± 2.7 kg/m3
- mass density (288.88 K, 3930.3 kPa, isochoric method): 2105.2 ± 2.7 kg/m3
- mass density (290.4 K, 34997 kPa, isochoric method): 2249.7 ± 2.8 kg/m3
- mass density (290.43 K, 4950.8 kPa, isochoric method): 2104.9 ± 2.7 kg/m3
- mass density (291.69 K, 20129 kPa, isochoric method): 2184.7 ± 2.7 kg/m3
- mass density (296.15 K, 39750 kPa, isochoric method): 2248.8 ± 2.8 kg/m3
- mass density (297.94 K, 861.4 kPa, isochoric method): 2038.1 ± 2.7 kg/m3
- mass density (298.14 K, 10026 kPa, isochoric method): 2103.9 ± 2.7 kg/m3
- mass density [1]: 2046.84 ± 2.2 kg/m3
- mass density (298.15 K, 25035 kPa, isochoric method): 2183.8 ± 2.7 kg/m3
- mass density (300.01 K, 2068.2 kPa, isochoric method): 2037.9 ± 2.7 kg/m3
- mass density (301.75 K, 3070.1 kPa, isochoric method): 2037.6 ± 2.7 kg/m3
- mass density (303.44 K, 4061.6 kPa, isochoric method): 2037.4 ± 2.7 kg/m3
- mass density (304.54 K, 29729 kPa, isochoric method): 2182.8 ± 2.7 kg/m3
- mass density (305.17 K, 5069.5 kPa, isochoric method): 2037.2 ± 2.7 kg/m3
- mass density (305.56 K, 14805 kPa, isochoric method): 2102.8 ± 2.7 kg/m3
- mass density (311.69 K, 35046 kPa, isochoric method): 2181.8 ± 2.7 kg/m3
- mass density (313.22 K, 982.5 kPa, isochoric method): 1957.5 ± 2.6 kg/m3
- mass density (313.53 K, 19969 kPa, isochoric method): 2101.8 ± 2.7 kg/m3
- mass density (313.58 K, 9932.8 kPa, isochoric method): 2036.1 ± 2.7 kg/m3
- mass density (315.12 K, 1958.3 kPa, isochoric method): 1957.3 ± 2.6 kg/m3
- mass density (317.18 K, 2990.2 kPa, isochoric method): 1957 ± 2.6 kg/m3
- mass density (318.54 K, 40060 kPa, isochoric method): 2180.9 ± 2.7 kg/m3
- mass density (319.17 K, 3976.2 kPa, isochoric method): 1956.8 ± 2.6 kg/m3
- mass density (321.22 K, 5005.2 kPa, isochoric method): 1956.5 ± 2.6 kg/m3
- mass density (321.68 K, 25300 kPa, isochoric method): 2100.7 ± 2.7 kg/m3
- mass density (322.38 K, 14998 kPa, isochoric method): 2034.9 ± 2.7 kg/m3
- mass density (328.99 K, 1994.4 kPa, isochoric method): 1875.8 ± 2.6 kg/m3
- mass density (329.49 K, 30240 kPa, isochoric method): 2099.6 ± 2.7 kg/m3
- mass density (331.3 K, 2985.8 kPa, isochoric method): 1875.6 ± 2.6 kg/m3
- mass density (331.3 K, 10058 kPa, isochoric method): 1955.3 ± 2.6 kg/m3
- mass density (331.31 K, 20061 kPa, isochoric method): 2033.8 ± 2.7 kg/m3
- mass density (333.64 K, 3972.3 kPa, isochoric method): 1875.3 ± 2.6 kg/m3
- mass density (336 K, 4985.7 kPa, isochoric method): 1875 ± 2.6 kg/m3
- mass density (337.32 K, 35169 kPa, isochoric method): 2098.6 ± 2.7 kg/m3
- mass density (340.45 K, 25264 kPa, isochoric method): 2032.6 ± 2.7 kg/m3
- mass density (341.64 K, 15161 kPa, isochoric method): 1954 ± 2.6 kg/m3
- mass density (343.84 K, 39291 kPa, isochoric method): 2097.7 ± 2.7 kg/m3
- mass density (353.14 K, 20828 kPa, isochoric method): 1952.6 ± 2.6 kg/m3
- mass density (353.15 K, 12322 kPa, isochoric method): 1873 ± 2.6 kg/m3
- mass density (353.15 K, 32431 kPa, isochoric method): 2031 ± 2.7 kg/m3
